Measurements published in patent publication US7183276B2, “Azole compounds” (Takeda Pharmaceutical Company Limited, priority 2002, dated 2007).

Structure (SMILES)	melting point
CCOP(=O)(Cc1ccc(NC(=O)/C=C/c2sc(-n3cnc4ccccc43)nc2-c2ccccc2)cc1)OCC	229 to 230 °C
O=C(CCc1oc(-n2cnc3ccccc32)nc1-c1ccc(F)cc1)N1CCC(O)CC1 [Example 258, 1-{3-[2-(1H-benzoimidazol-1-yl)-4-(4-fluorophenyl)-5-oxazolyl]propanoyl}-4-piperidinol]	158 to 159 °C
CCOP(=O)(Cc1ccc(NC(=O)CCc2sc(NC(=O)Nc3ccccc3)nc2-c2ccc(Cl)cc2)cc1)OCC	175 to 176 °C
NC(=O)CCc1oc(-c2ccc3ccccc3c2)nc1-c1ccc(Cl)cc1 [Example 24, 3-[4-(4-chlorophenyl)-2-(2-naphthyl)-5-oxazolyl]propionamide]	206 to 207 °C
CN(C)c1ccc(NC(=O)CCc2oc(-n3cnc4ccccc43)nc2-c2ccc(Cl)cc2)cc1 [Example 130, 3-[2-(1H-benzimidazol-1-yl)-4-(4-chlorophenyl)-5-oxazolyl]-N-[4-(dimethylamino)phenyl]propionamide]	212 to 214 °C
NC(=O)/C=C/c1oc(-c2ccccc2)nc1-c1ccc(Cl)cc1 [Example 55, (2E)-3-[4-(4-chlorophenyl)-2-phenyl-5-oxazolyl]propenamide]	240 to 241 °C
CCOP(=O)(OCC)C(F)c1ccc(NC(=O)CCc2oc(-n3cnc4ccccc43)nc2-c2ccc(Cl)cc2)cc1 (centres unmarked)	152 to 155 °C
O=C(CCc1oc(-c2ccccc2)nc1-c1ccc(Cl)cc1)Nc1cccnc1 [Example 41, 3-[4-(4-chlorophenyl)-2-phenyl-5-oxazolyl]-N-(3-pyridinyl)propionamide]	204 to 205 °C
CCOP(=O)(CCc1ccc(NC(=O)CCCc2oc(-n3cnc4ccccc43)nc2-c2ccc(Cl)cc2)cc1)OCC	116 to 117 °C
COc1ccccc1NC(=O)Cc1ccc(NC(=O)CCc2oc(-n3cnc4ccccc43)nc2-c2ccc(Cl)cc2)cc1 [Example 139, 2-[4-(N-{3-[2-(1H-benzimidazol-1-yl)-4-(4-chlorophenyl)-5-oxazolyl]propanoyl}amino)phenyl]-N-(2-methoxyphenyl)acetamide]	258 to 259 °C
COC(=O)c1ccc(NC(=O)CCc2oc(-n3cnc4ccccc43)nc2-c2ccc(Cl)cc2)cc1 [Example 91, 3-[2-(1H-benzimidazol-1-yl)-4-(4-chlorophenyl)-5-oxazolyl]-N-[4-(methoxycarbonyl)phenyl]propionamide]	249 to 250 °C
CN(C)c1ccc(CNC(=O)CCc2oc(-n3cnc4ccccc43)nc2-c2ccc(Cl)cc2)cc1 [Example 135, 3-[2-(1H-benzimidazol-1-yl)-4-(4-chlorophenyl)-5-oxazolyl)-N-[4-(dimethylamino)benzyl]propionamide]	184 to 185 °C
Cc1nc(-c2ccc(Cl)cc2)c(CCC(=O)N2CCS(=O)(=O)CC2)o1 [Example 241, 4-{3-[4-(4-chlorophenyl)-2-methyl-5-oxazolyl]propanoyl}thiomorpholine-1,1-dioxide]	124 to 125 °C
COP(=O)(Cc1ccc(NC(=O)CCCCCc2sc(-c3ccccc3)nc2-c2ccc(Cl)cc2)cc1)OC	164 to 165 °C
COc1ccc(CNC(=O)CCc2oc(-n3cnc4ccccc43)nc2-c2ccc(Cl)cc2)cc1 [Example 145, 3-[2-(1H-benzimidazol-1-yl)-4-(4-chlorophenyl)-5-oxazolyl]-N-(4-methoxybenzyl)propionamide]	210 to 212 °C
NC(=O)CCc1oc(-c2ccccc2)nc1-c1ccc(Cl)cc1 [Example 43, 3-[4-(4-chlorophenyl)-2-phenyl-5-oxazolyl]propionamide]	207 to 208 °C
O=C(CCc1oc(-n2cnc3ccccc32)nc1-c1ccc(Cl)cc1)NC1CCC(O)CC1 (centres unmarked) [Example 304, 3-[2-(1H-benzoimidazol-1-yl)-4-(4-chlorophenyl)-5-oxazolyl]-N-(4-hydroxycyclohexyl)propanamide]	204 to 206 °C
CCOP(=O)(Cc1ccc(NC(=O)CCc2oc(N3CCOCC3)nc2-c2ccc(Cl)cc2)cc1)OCC	186 to 187 °C
CCOP(=O)(Cc1ccc(NC(=O)CCc2sc(-n3cnc4ccccc43)nc2-c2ccccc2)cc1)OCC	142 to 143 °C
NC(=O)CCc1oc(C2CCCCC2)nc1-c1ccc(Cl)cc1 [Example 17, 3-[4-(4-chlorophenyl)-2-cyclohexyl-5-oxazolyl]propionamide]	142 to 143 °C
CCOP(=O)(Cc1ccc(NC(=O)CCc2oc(-c3cccs3)nc2-c2ccc(Cl)cc2)cc1)OCC	164 to 165 °C
O=C(CCc1oc(-n2cnc3ccccc32)nc1-c1ccc(Cl)cc1)NCCOc1ccccc1 [Example 162, 3-[2-(1H-benzimidazol-1-yl)-4-(4-chlorophenyl)-5-oxazolyl]-N-(2-phenoxyethyl)propionamide]	156 to 157 °C
CCOP(=O)(Cc1ccc(NC(=O)CCc2sc(NC(=O)c3ccccc3)nc2-c2ccc(Cl)cc2)cc1)OCC	171 to 172 °C
CCS(=O)(=O)CCNC(=O)CCc1oc(-n2cnc3ccccc32)nc1-c1ccc(Cl)cc1 [Example 301, 3-[2-(1H-benzoimidazol-1-yl)-4-(4-chlorophenyl)-5-oxazolyl]-N-[2-(ethylsulfonyl)ethyl]propanamide]	182 to 183 °C

Structure (SMILES)	melting point
O=C(CCc1oc(-n2cnc3ccccc32)nc1-c1ccc(Cl)cc1)NCc1ccc(Br)cc1 [Example 172, 3-[2-(1H-benzimidazol-1-yl)-4-(4-chlorophenyl)-5-oxazolyl]-N-(4-bromobenzyl)propionamide]	205 to 206 °C
CCOP(=O)(Cc1ccc(NC(=O)/C=C/c2sc(-n3cnc4ccccc43)nc2C)cc1)OCC	150 to 151 °C
O=C(CCc1sc(-c2ccccc2)nc1-c1ccc(Cl)cc1)Nc1ccc(C(=O)O)cc1 [Example 64, 4-({3-[4-(4-chlorophenyl)-2-phenyl-5-thiazolyl]propanoyl}amino)benzoic acid]	294 to 295 °C
O=C(CCc1oc(-n2cnc3ccccc32)nc1-c1ccc(Cl)cc1)NCc1ccncc1 [Example 155, 3-[2-(1H-benzimidazol-1-yl)-4-(4-chlorophenyl)-5-oxazolyl]-N-(4-pyridinylmethyl)propionamide]	214 to 216 °C
CCOP(=O)(Cc1ccc(NC(=O)CCc2oc(-n3cnc4ccccc43)nc2-c2cccc(Cl)c2)cc1)OCC	98 to 99 °C
CCOP(=O)(Cc1ccc(NC(=O)CCc2sc(-n3cnc4ccccc43)nc2-c2ccc(Cl)cc2)cc1)OCC	150 to 151 °C
CCOP(=O)(Cc1ccc(NC(=O)/C=C/c2sc(-n3cnc4ccccc43)nc2C(C)(C)C)cc1)OCC	211 to 212 °C
O=C(CCc1oc(-n2cnc3ccccc32)nc1-c1ccccc1)N1CCC(O)CC1 [Example 247, 1-{3-[2-(1H-benzoimidazol-1-yl)-4-phenyl-5-oxazolyl]propanoyl}-4-piperidinol]	157 to 158 °C
CCN(CC)C(=O)Cc1ccc(NC(=O)CCc2oc(-n3cnc4ccccc43)nc2-c2ccc(Cl)cc2)cc1 [Example 106, 2-[4-({3-[2-(1H-benzimidazol-1-yl)-4-(4-chlorophenyl)-5-oxazolyl]propanoyl}amino)phenyl]-N,N-diethylacetamide]	209 to 210 °C
CCOP(=O)(Cc1ccc(NC(=O)CCc2oc(-n3cnc4ccccc43)nc2-c2ccc(OC)cc2)cc1)OCC	143 to 144 °C
CCOP(=O)(Cc1ccc(NC(=O)/C=C/c2oc(-c3ccccc3)nc2-c2ccc(Cl)cc2)cc1)OCC	204 to 206 °C
Cc1ccc(CNC(=O)CCc2oc(-n3cnc4ccccc43)nc2-c2ccc(Cl)cc2)cc1 [Example 125, 3-[2-(1H-benzimidazol-1-yl)-4-(4-chlorophenyl)-5-oxazolyl]-N-(4-methylbenzyl)propionamide]	241 to 242 °C
CCOP(=O)(Cc1ccc(NC(=O)CCc2oc(Cc3ccccc3)nc2-c2ccc(Cl)cc2)cc1)OCC	161 to 162 °C
NC(=O)CCc1oc(-c2cccs2)nc1-c1ccc(Cl)cc1 [Example 25, 3-[4-(4-chlorophenyl)-2-(2-thienyl)-5-oxazolyl]propionamide]	226 to 227 °C
N#Cc1ccccc1NC(=O)CCc1oc(-n2cnc3ccccc32)nc1-c1ccc(Cl)cc1 [Example 113, 3-[2-(1H-benzimidazol-1-yl)-4-(4-chlorophenyl)-5-oxazolyl]-N-(2-cyanophenyl)propionamide]	186 to 187 °C
O=C(CCc1oc(-n2cnc3ccccc32)nc1-c1ccc(Cl)cc1)NCc1ccccn1 [Example 154, 3-[2-(1H-benzimidazol-1-yl)-4-(4-chlorophenyl)-5-oxazolyl]-N-(2-pyridinylmethyl)propionamide]	157 to 158 °C
Cc1ncn(-c2nc(-c3ccc(Cl)cc3)c(CCC(N)=O)o2)c1C [Example 19, 3-[4-(4-chlorophenyl)-2-(4,5-dimethyl-1-imidazolyl)-5-oxazolyl]propionamide]	232 to 233 °C
CCOP(=O)(Cc1ccc(NC(=O)CCc2oc(Sc3ccccn3)nc2-c2ccc(Cl)cc2)cc1)OCC	146 to 147 °C
O=C(CCc1oc(-n2cnc3ccccc32)nc1-c1cccc(Cl)c1)N1CCC(O)CC1 [Example 257, 1-{3-[2-(1H-benzoimidazol-1-yl)-4-(3-chlorophenyl)-5-oxazolyl]propanoyl}-4-piperidinol]	97 to 98 °C
O=C(CCc1oc(-n2cnc3ccccc32)nc1-c1ccc(Cl)cc1)Nc1ccc(F)cc1 [Example 128, 3-[2-(1H-benzimidazol-1-yl)-4-(4-chlorophenyl)-5-oxazolyl]-N-(4-fluorophenyl)propionamide]	221 to 222 °C
Cc1ccc(C)c(CNC(=O)CCc2oc(-n3cnc4ccccc43)nc2-c2ccc(Cl)cc2)c1 [Example 181, 3-[2-(1H-benzimidazol-1-yl)-4-(4-chlorophenyl)-5-oxazolyl]-N-(2,5-dimethylbenzyl)propionamide]	218 to 219 °C
CNC(=O)Cc1ccc(NC(=O)CCc2oc(-n3cnc4ccccc43)nc2-c2ccc(Cl)cc2)cc1 [Example 143, 2-[4-({3-[2-(1H-benzimidazol-1-yl)-4-(4-chlorophenyl)-5-oxazolyl]propanoyl}amino)phenyl]-N-methylacetamide]	219 to 221 °C
CCOP(=O)(Cc1ccc(NC(=O)CCCc2oc(N3CCN(c4ccccn4)CC3)nc2-c2ccc(Cl)cc2)cc1)OCC	114 to 116 °C
